In one data set the test system is adenosine deaminase. The data set is described as follows: Metabolic stability in presence of calf intestinal adenosine deaminase assessed as compound remaining after 15 mins. In kind it is ADME. The settings on record: cattle, read-out: Activity.
Data set [1] has as its target Adenosylhomocysteinase (Homo sapiens, UniProt P23526). The data set is described as follows: Inhibition of human SAHH.
The target in data set [2] is Adenosylhomocysteinase (Plasmodium falciparum 3D7, UniProt P50250). Nature of the data set: Inhibition of Plasmodium falciparum SAHH.
Sequence of Adenosylhomocysteinase (Plasmodium falciparum 3D7, UniProt P50250) (P50250 whole entry): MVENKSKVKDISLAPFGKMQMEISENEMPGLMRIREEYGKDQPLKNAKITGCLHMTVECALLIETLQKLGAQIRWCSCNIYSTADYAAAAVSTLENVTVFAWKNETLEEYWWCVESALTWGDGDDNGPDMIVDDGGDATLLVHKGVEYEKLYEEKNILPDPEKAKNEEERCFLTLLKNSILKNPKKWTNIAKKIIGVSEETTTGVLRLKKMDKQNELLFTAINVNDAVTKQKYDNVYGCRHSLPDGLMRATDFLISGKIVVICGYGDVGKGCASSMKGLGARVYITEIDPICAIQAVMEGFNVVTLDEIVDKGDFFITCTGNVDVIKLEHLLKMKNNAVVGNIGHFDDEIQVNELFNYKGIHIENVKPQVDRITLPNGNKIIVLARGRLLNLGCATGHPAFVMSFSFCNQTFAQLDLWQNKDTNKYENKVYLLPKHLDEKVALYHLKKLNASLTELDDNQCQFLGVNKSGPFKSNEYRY

The structures appear in SMILES notation.

We go through three compounds from ChEMBL document CHEMBL1142404, “Synthesis of 2-modified aristeromycins and their analogs as potent inhibitors against Plasmodium falciparum S-adenosyl-L-homocysteine hydrolase” (Bioorg Med Chem, 2008).

Sequence of Adenosylhomocysteinase (Homo sapiens, UniProt P23526) (P23526 whole entry): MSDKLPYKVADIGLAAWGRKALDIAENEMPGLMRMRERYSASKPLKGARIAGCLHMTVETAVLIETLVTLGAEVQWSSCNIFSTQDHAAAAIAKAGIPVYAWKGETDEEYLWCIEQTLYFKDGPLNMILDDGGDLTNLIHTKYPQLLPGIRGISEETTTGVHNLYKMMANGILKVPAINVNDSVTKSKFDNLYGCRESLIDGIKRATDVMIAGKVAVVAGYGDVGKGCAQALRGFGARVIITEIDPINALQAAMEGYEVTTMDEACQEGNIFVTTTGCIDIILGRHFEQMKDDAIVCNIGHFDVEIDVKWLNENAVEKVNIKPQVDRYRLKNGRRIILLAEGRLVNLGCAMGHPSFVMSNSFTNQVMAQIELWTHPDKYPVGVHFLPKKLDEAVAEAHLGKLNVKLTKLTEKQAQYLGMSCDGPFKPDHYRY

For `Nc1ncnc2c1ncn2[C@@H]1C[C@H](CO)[C@@H](O)[C@H]1O` [ARISTEROMYCIN], in the data set with adenosine deaminase, the remaining at 0.25 h was determined as 22.4%.

A word on the IC50: it is the concentration that gives 50% inhibition. Low readings indicate greater potency, high ones weaker potency. `Nc1nc(F)nc2c1ncn2[C@@H]1C[C@H](CO)[C@@H](O)[C@H]1O`: the concentration for half-maximal inhibition (IC50) was determined as 47.2 µM against Adenosylhomocysteinase [1] and 1.98 µM against Adenosylhomocysteinase [2]. Moreover, in the data set on adenosine deaminase, the remaining at 0.25 h was 99.5%.

As for `Nc1nc(N)c2ncn([C@@H]3C[C@H](CO)[C@@H](O)[C@H]3O)c2n1`, the values for the IC50 on Adenosylhomocysteinase [1] and against Adenosylhomocysteinase [2] were 90.7 µM and 4.51 µM, respectively. In the data set on adenosine deaminase, the remaining at 0.25 h turned out to be 95.2%.
